These results are taken from US6855710B2, “Substituted indolines with an inhibitory effect on various kinases and complexes of CDKs” (Boehringer Ingelheim Pharma KG, priority 1998, dated 2005).

A word on the melting point: it is the temperature of the solid-liquid transition. Turning to `O=C1Nc2ccc([N+](=O)[O-])cc2/C1=C(/Nc1ccc(CN2CCCCC2)cc1)c1ccc(C(F)(F)F)cc1` [Example 442, (Z)-3-[1-(4-piperidinomethyl-phenylamino)-1-(4-trifluoromethyl-phenyl)-methylidene]-5-nitro-2-indolinone], the melting point lay within 300 to 302 °C.

Consider `CN(C)C(=O)CN(c1ccc(N/C(=C2\C(=O)Nc3ccc([N+](=O)[O-])cc32)c2ccccc2)cc1)S(C)(=O)=O` [Example 201, (Z)-3-{1-[4-(N-dimethylaminocarbonylmethyl-N-methylsulphonyl-amino)-phenylamino]-1-phenyl-methylidene}-5-nitro-2-indolinone], for which the melting point was in the range of 277 to 280 °C.

Take `CN(Cc1ccccc1)Cc1ccc(N/C(=C2\C(=O)Nc3ccc([N+](=O)[O-])cc32)c2ccccc2)cc1` [Example 238, (Z)-3-{1-[4-(N-benzyl-N-methyl-aminomethyl)-phenylamino]-1-phenyl-methylidene}-5-nitro-2-indolinone]: the melting point was in the range of 200 to 201 °C.

For the compound `Cl.NCCc1ccc(N/C(=C2\C(=O)Nc3ccc([N+](=O)[O-])cc32)c2ccccc2)cc1`, the melting point was 335 to 340 °C (dec.).

Regarding `CN(C)C(=O)CN(c1ccc(N/C(=C2\C(=O)Nc3ccccc32)c2ccccc2)cc1)S(=O)(=O)c1ccccc1` [Example 205, (Z)-3-{1-[4-(N-dimethylaminocarbonylmethyl-N-phenylsulphonyl-amino)-phenylamino]-1-phenyl-methylidene}-2-indolinone], the melting point lay in the range of 255 to 258 °C.

As for `CC(C)(C)OC(=O)NCC(=O)NCc1ccc(N/C(=C2\C(=O)Nc3ccccc32)c2ccccc2)cc1` [Example 57, (Z)-3-[1-(4-tert.butoxycarbonylaminomethylcarbonylaminomethyl-phenylamino)-1-phenyl-methylidene}-2-indolinone], the melting point was in the range of 218 to 220 °C.

`CN(c1ccc(N/C(=C2\C(=O)Nc3ccccc32)c2ccccc2)cc1)S(=O)(=O)CCN1CCCCC1` [Example 383, (Z)-3-{1-[4-(N-(2-piperidinoethylsulphonyl)-N-methyl-amino)-phenylamino]-1-phenyl-methylidene}-2-indolinone]: the melting point lay in the range of 121 to 123 °C.

With `COc1ccc(/C(Nc2ccc(CN(C)C)cc2)=C2/C(=O)Nc3ccccc32)cc1` [Example 215, (Z)-3-[1-(4-dimethylaminomethyl-phenylamino)-1-(4-methoxyphenyl)-methylidene]-2-indolinone], the melting point fell in the range of 206 to 207 °C.

In turn, `CNC(=O)c1cccc(N/C(=C2\C(=O)Nc3ccccc32)c2ccccc2)c1` [Example 21, (Z)-3-[1-(3-methylaminocarbonyl-phenylamino)-1-phenyl-methylidene]-2-indolinone] yielded a melting point of 250 to 252 °C.

Turning to `NC(=O)c1cccc(N/C(=C2\C(=O)Nc3ccccc32)c2ccccc2)c1` [Example 10, (Z)-3-{1-[3-(aminocarbonyl)phenylamino]-1-phenyl-methylidene}-2-indolinone], the melting point lay within 258 to 263 °C.

Consider `O=CNc1ccc(N/C(=C2\C(=O)Nc3ccccc32)c2ccccc2)cc1` [Example 29, (Z)-3-[1-(4-formylamino-phenylamino)-1-phenyl-methylidene]-2-indolinone], for which the melting point was in the range of 268 to 269 °C.

For the compound `CS(=O)(=O)Nc1cccc(N/C(=C2\C(=O)Nc3ccccc32)c2ccccc2)c1` [Example 183, (Z)-3-[1-(3-methylsulphonylamino-phenylamino)-1-phenyl-methylidene]-2-indolinone], the melting point turned out to be 275 °C.

Compound `CN(C)Cc1ccc(N/C(=C2\C(=O)Nc3ccccc32)c2cccc(Cl)c2)cc1` [Example 223, (Z)-3-[1-(4-dimethylaminomethyl-phenylamino)-1-(3-chlorophenyl)-methylidene]-2-indolinone] registered a melting point of 197 to 198 °C.
